# Source: paper PMC9323625, “Structure–Function Insights into the Fungal Endo-Chitinase Chit33 Depict its Mechanism on Chitinous Material” (International Journal of Molecular Sciences, 2022)
# Molecular target: T1, Chit33 (Trichoderma harzianum, UniProt Q12713, D165A/E167A)
# T1 construct: gene chit33 (909 bp, 321 amino acids) expressed in Pichia pastoris GS115 from CHIT33-pIB4, secreted to the extracellular fraction; 33 kDa
# T1 sequence (Q12713 20-321 D165A/E167A): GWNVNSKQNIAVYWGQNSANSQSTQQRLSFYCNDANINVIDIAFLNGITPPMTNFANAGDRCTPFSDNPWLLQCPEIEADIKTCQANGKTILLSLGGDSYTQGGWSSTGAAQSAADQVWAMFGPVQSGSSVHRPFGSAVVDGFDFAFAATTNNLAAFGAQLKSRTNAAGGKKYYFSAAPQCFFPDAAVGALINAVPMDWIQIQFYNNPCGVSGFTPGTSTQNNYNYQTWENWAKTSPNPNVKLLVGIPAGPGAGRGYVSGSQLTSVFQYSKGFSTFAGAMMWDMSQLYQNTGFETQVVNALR
# Experiment: X-ray crystal structure, […] Å
# Type: binding
# Conditions: crystal soaked with 18 mM NAG4 for 30 min; active site, subsites −2 to +2; inactivated double mutant
smiles,measurement,value
"CC(=O)N[C@H]1[C@H](O[C@H]2[C@H](O)[C@@H](NC(C)=O)C(O)O[C@@H]2CO)O[C@H](CO)[C@@H](O[C@@H]2O[C@H](CO)[C@@H](O[C@@H]3O[C@H](CO)[C@@H](O)[C@H](O)[C@H]3NC(C)=O)[C@H](O)[C@H]2NC(C)=O)[C@@H]1O (stereo partly shown) [NAG4, N,N’,N’’,N’’’-acetyl chitotetraose]","X-ray crystal structure, 1.60 Å",we determined the crystal structure of the inactive double-mutant D165A/E167A with the substrate NAG4
